From the NIST ThermoML archive (doi:10.1016/j.jct.2016.10.016)
± gives the expanded uncertainty stated by the source.

Test: mn = molality of the nth substance listed, in mol/kg
Conditions: 101.3 kPa, Liquid

## COC(=O)[C@H](C)N.Cl [methyl L-alaninate hydrochloride] + O
278.15 K, Frequency=2 MHz, Linear variable-path acoustic interferometer, m1 = 0.0501
  speed of sound: 1432 ± 2 m/s
278.15 K, Frequency=2 MHz, Linear variable-path acoustic interferometer, m1 = 0.0614
  speed of sound: 1432.9 ± 2 m/s
278.15 K, Frequency=2 MHz, Linear variable-path acoustic interferometer, m1 = 0.0701
  speed of sound: 1433.8 ± 2 m/s
278.15 K, Frequency=2 MHz, Linear variable-path acoustic interferometer, m1 = 0.082
  speed of sound: 1435.4 ± 2 m/s
278.15 K, Frequency=2 MHz, Linear variable-path acoustic interferometer, m1 = 0.091
  speed of sound: 1437.2 ± 2 m/s
278.15 K, Frequency=2 MHz, Linear variable-path acoustic interferometer, m1 = 0.1004
  speed of sound: 1437.6 ± 2 m/s
278.15 K, Frequency=2 MHz, Linear variable-path acoustic interferometer, m1 = 0.1099
  speed of sound: 1438.9 ± 2 m/s
278.15 K, Frequency=2 MHz, Linear variable-path acoustic interferometer, m1 = 0.1219
  speed of sound: 1440 ± 2 m/s
278.15 K, Frequency=2 MHz, Linear variable-path acoustic interferometer, m1 = 0.1296
  speed of sound: 1441.4 ± 2 m/s
278.15 K, Frequency=2 MHz, Linear variable-path acoustic interferometer, m1 = 0.1411
  speed of sound: 1442.6 ± 2 m/s
278.15 K, Frequency=2 MHz, Linear variable-path acoustic interferometer, m1 = 0.1515
  speed of sound: 1443.6 ± 2 m/s
278.15 K, Frequency=2 MHz, Linear variable-path acoustic interferometer, m1 = 0.1618
  speed of sound: 1444.4 ± 2 m/s
278.15 K, Pycnometric method, m1 = 0.0501
  mass density: 1001.79 ± 0.28 kg/m3
278.15 K, Pycnometric method, m1 = 0.0614
  mass density: 1002.2 ± 0.28 kg/m3
278.15 K, Pycnometric method, m1 = 0.0701
  mass density: 1002.52 ± 0.28 kg/m3
278.15 K, Pycnometric method, m1 = 0.082
  mass density: 1002.95 ± 0.28 kg/m3
278.15 K, Pycnometric method, m1 = 0.091
  mass density: 1003.28 ± 0.29 kg/m3
278.15 K, Pycnometric method, m1 = 0.1004
  mass density: 1003.62 ± 0.29 kg/m3
278.15 K, Pycnometric method, m1 = 0.1099
  mass density: 1003.97 ± 0.29 kg/m3
278.15 K, Pycnometric method, m1 = 0.1219
  mass density: 1004.4 ± 0.29 kg/m3
278.15 K, Pycnometric method, m1 = 0.1296
  mass density: 1004.68 ± 0.3 kg/m3
278.15 K, Pycnometric method, m1 = 0.1411
  mass density: 1005.1 ± 0.3 kg/m3
278.15 K, Pycnometric method, m1 = 0.1515
  mass density: 1005.48 ± 0.3 kg/m3
278.15 K, Pycnometric method, m1 = 0.1618
  mass density: 1005.86 ± 0.3 kg/m3
288.15 K, Frequency=3 MHz, Sing-around technique in a fixed-path interferometer, m1 = 0.0502
  speed of sound: 1470.7 ± 1.2 m/s
288.15 K, Frequency=3 MHz, Sing-around technique in a fixed-path interferometer, m1 = 0.0601
  speed of sound: 1471.8 ± 1.2 m/s
288.15 K, Frequency=3 MHz, Sing-around technique in a fixed-path interferometer, m1 = 0.07
  speed of sound: 1473.1 ± 1.2 m/s
288.15 K, Frequency=3 MHz, Sing-around technique in a fixed-path interferometer, m1 = 0.0801
  speed of sound: 1474.1 ± 1.2 m/s
288.15 K, Frequency=3 MHz, Sing-around technique in a fixed-path interferometer, m1 = 0.0901
  speed of sound: 1475.2 ± 1.2 m/s
288.15 K, Frequency=3 MHz, Sing-around technique in a fixed-path interferometer, m1 = 0.1003
  speed of sound: 1476.3 ± 1.2 m/s
288.15 K, Frequency=3 MHz, Sing-around technique in a fixed-path interferometer, m1 = 0.1101
  speed of sound: 1477.1 ± 1.2 m/s
288.15 K, Frequency=3 MHz, Sing-around technique in a fixed-path interferometer, m1 = 0.1202
  speed of sound: 1477.8 ± 1.2 m/s
288.15 K, Frequency=3 MHz, Sing-around technique in a fixed-path interferometer, m1 = 0.13
  speed of sound: 1478.9 ± 1.3 m/s
288.15 K, Frequency=3 MHz, Sing-around technique in a fixed-path interferometer, m1 = 0.1401
  speed of sound: 1480 ± 1.3 m/s
288.15 K, Frequency=3 MHz, Sing-around technique in a fixed-path interferometer, m1 = 0.1504
  speed of sound: 1481.1 ± 1.3 m/s
288.15 K, Frequency=3 MHz, Sing-around technique in a fixed-path interferometer, m1 = 0.1603
  speed of sound: 1482.2 ± 1.3 m/s
288.15 K, Vibrating tube method, m1 = 0.0502
  mass density: 1000.8 ± 0.11 kg/m3
288.15 K, Vibrating tube method, m1 = 0.0601
  mass density: 1001.13 ± 0.11 kg/m3
288.15 K, Vibrating tube method, m1 = 0.07
  mass density: 1001.47 ± 0.12 kg/m3
288.15 K, Vibrating tube method, m1 = 0.0801
  mass density: 1001.8 ± 0.12 kg/m3
288.15 K, Vibrating tube method, m1 = 0.0901
  mass density: 1002.14 ± 0.12 kg/m3
288.15 K, Vibrating tube method, m1 = 0.1003
  mass density: 1002.49 ± 0.13 kg/m3
288.15 K, Vibrating tube method, m1 = 0.1101
  mass density: 1002.82 ± 0.13 kg/m3
288.15 K, Vibrating tube method, m1 = 0.1202
  mass density: 1003.16 ± 0.13 kg/m3
288.15 K, Vibrating tube method, m1 = 0.13
  mass density: 1003.49 ± 0.14 kg/m3
288.15 K, Vibrating tube method, m1 = 0.1401
  mass density: 1003.83 ± 0.14 kg/m3
288.15 K, Vibrating tube method, m1 = 0.1504
  mass density: 1004.18 ± 0.15 kg/m3
288.15 K, Vibrating tube method, m1 = 0.1603
  mass density: 1004.51 ± 0.15 kg/m3
298.15 K, Frequency=3 MHz, Sing-around technique in a fixed-path interferometer, m1 = 0.0486
  speed of sound: 1500.6 ± 1.2 m/s
298.15 K, Frequency=3 MHz, Sing-around technique in a fixed-path interferometer, m1 = 0.0601
  speed of sound: 1502.2 ± 1.2 m/s
298.15 K, Frequency=3 MHz, Sing-around technique in a fixed-path interferometer, m1 = 0.0697
  speed of sound: 1503 ± 1.2 m/s
298.15 K, Frequency=3 MHz, Sing-around technique in a fixed-path interferometer, m1 = 0.0819
  speed of sound: 1503.6 ± 1.2 m/s
298.15 K, Frequency=3 MHz, Sing-around technique in a fixed-path interferometer, m1 = 0.0899
  speed of sound: 1504.7 ± 1.2 m/s
298.15 K, Frequency=3 MHz, Sing-around technique in a fixed-path interferometer, m1 = 0.0963
  speed of sound: 1505.2 ± 1.2 m/s
298.15 K, Frequency=3 MHz, Sing-around technique in a fixed-path interferometer, m1 = 0.11
  speed of sound: 1506.4 ± 1.2 m/s
298.15 K, Frequency=3 MHz, Sing-around technique in a fixed-path interferometer, m1 = 0.1184
  speed of sound: 1507.1 ± 1.2 m/s
298.15 K, Frequency=3 MHz, Sing-around technique in a fixed-path interferometer, m1 = 0.1302
  speed of sound: 1508 ± 1.2 m/s
298.15 K, Frequency=3 MHz, Sing-around technique in a fixed-path interferometer, m1 = 0.1401
  speed of sound: 1508.9 ± 1.3 m/s
298.15 K, Frequency=3 MHz, Sing-around technique in a fixed-path interferometer, m1 = 0.1507
  speed of sound: 1509.8 ± 1.2 m/s
298.15 K, Frequency=3 MHz, Sing-around technique in a fixed-path interferometer, m1 = 0.1601
  speed of sound: 1510.3 ± 1.2 m/s
298.15 K, Vibrating tube method, m1 = 0.0486
  mass density: 998.75 ± 0.11 kg/m3
298.15 K, Vibrating tube method, m1 = 0.0601
  mass density: 999.01 ± 0.11 kg/m3
298.15 K, Vibrating tube method, m1 = 0.0697
  mass density: 999.32 ± 0.11 kg/m3
298.15 K, Vibrating tube method, m1 = 0.0819
  mass density: 999.68 ± 0.12 kg/m3
298.15 K, Vibrating tube method, m1 = 0.0899
  mass density: 999.97 ± 0.12 kg/m3
298.15 K, Vibrating tube method, m1 = 0.0963
  mass density: 1000.19 ± 0.12 kg/m3
298.15 K, Vibrating tube method, m1 = 0.11
  mass density: 1000.61 ± 0.13 kg/m3
298.15 K, Vibrating tube method, m1 = 0.1184
  mass density: 1000.89 ± 0.13 kg/m3
298.15 K, Vibrating tube method, m1 = 0.1302
  mass density: 1001.2 ± 0.13 kg/m3
298.15 K, Vibrating tube method, m1 = 0.1401
  mass density: 1001.54 ± 0.15 kg/m3
298.15 K, Vibrating tube method, m1 = 0.1507
  mass density: 1001.93 ± 0.14 kg/m3
298.15 K, Vibrating tube method, m1 = 0.1601
  mass density: 1002.17 ± 0.13 kg/m3
